Type in all cases: cell-based
The subject of test [1] is DLBCL cell lines (GCB and ABC). In words: tritiated thymidine incorporation proliferation assay. How it is done:
Cells were then cultured for 3 days at 37° C. Tritiated thymidine was applied to the cell culture for the final 6 hours and cells were then harvested onto filter plates. After the plates have dried, scintillation fluid was added to the plates and read on a Top-count reader.
The cells were then analyzed for proliferation using a ^3H-thymidine incorporation assay.
Proliferation was assessed through tritiated thymidine incorporation.

For a further test, the system named is ZFP91, Aiolos. Kind of test: Western blot of ZFP91 and Aiolos in OCI-LY10 cells. Conditions: OCI-LY10, 6 hrs. The source says:
Cells were harvested with RIPA buffer, and proteins from cell lysates were separated by 10% sodium dodecyl sulfate polyacrylamide (SDS-PAGE) gel electrophoresis (Bio-Rad), and transferred to PVDF membranes (Invitrogen). Immunoblots were probed with antibodies recognizing Aiolos (9-9-7; Celgene), CK1α(Abcam), GSPT1 (Sigma), ZFP91 (LSBio) and β-actin (Li-Cor). Signals were detected with a Li-Cor Odyssey imager.
Immunoblots were probed with antibodies recognizing Aiolos (9-9-7; Celgene), GSPT1 (Sigma), ZFP91 (LSBio) and β-actin (Li-Cor). Signals were detected with a Li-Cor Odyssey imager.
OCI-LY10 cells treated with DMSO or various drugs for 6 hrs. Cells were harvested with RIPA buffer and proteins from cell lysates were separated by 10% sodium dodecyl sulfate polyacrylamide (SDS-PAGE) gel electrophoresis (Bio-Rad), and transferred to PVDF membranes (Invitrogen). Immunoblots were probed with antibodies recognizing: Aiolos (9-9-7; Celgene), CK1α(Abcam), GSPT1 (Sigma), ZFP91 (LSBio) and β-actin (Li-Cor). Signals were detected with a Li-Cor Odyssey imager.
OCI-LY10 cells were then treated with DMSO or various drugs for 6 hrs. […] Cells were harvested with RIPA buffer and Proteins from cell lysates were separated by 10% sodium dodecyl sulfate polyacrylamide (SDS-PAGE) gel electrophoresis (Bio-Rad), and transferred to PVDF membranes (Invitrogen). Immunoblots were probed with antibodies recognizing: Aiolos (9-9-7; Celgene), ZFP91 (LSBio), ZNF198 (LSBio) and β-actin (Li-Cor). Signals were detected with a Li-Cor™ Odyssey imager.
OCI-LY10 cells stably transduced with shCRBN 11 were induced for 48 hrs with either 0 or 10 ng/ml of doxycycline. […] Where MLN4924 treatments were present, MLN4924 was pre-incubated for 1 hr prior to drug treatment. Cells were harvested with RIPA buffer and Proteins from cell lysates were separated by 10% sodium dodecyl sulfate polyacrylamide (SDS-PAGE) gel electrophoresis (Bio-Rad), and transferred to PVDF membranes (Invitrogen). Immunoblots were probed with antibodies recognizing: CRBN-65, Aiolos (9-9-7; Celgene), Ikaros (Millipore), ZFP91 (LSBio) and β-actin (Li-Cor). Signals were detected with a Li-Cor Odyssey imager.

In test [2] the test system is TMD8 (ABC) or Karpas 422 (GCB) cells. In words: competition with lenalidomide for CRBN, 3H-thymidine proliferation. As to conditions: TMD8 or Karpas 422; co-treatment with 10 μM lenalidomide; competition of binding to the CRBN complex.
Another test concerns Aiolos, Ikaros, ZFP91. In words: Western blot in myeloma, lymphoma and primary B cells. Conditions: U266, DF15, RPMI8226, OCI-LY10, WSU-DLCL2, WSU-DLCL2 Compound A resistant, primary B cells; 8 hours. As to the method: Multiple myeloma cells (U266, DF15, RPMI8226), diffuse large B cell lymphoma cells (OCI-LY10, WSU-DLCL2, WSU-DLCL2 Compound A resistant), and primary B cells were treated with DMSO, […] or […] for 8 hours. Cells were harvested and were treated in cell lysis buffer to generate cell lysates. Proteins from cell lysate were separated by gel electrophoresis (10% SDS-PAGE) and transferred to nitrocellulose membranes. Immunoblots were then probed with antibodies recognizing Aiolos, CRBN, Ikaros, ZFP91 (LSBio), IRF4, IRF7, Myc, and β-actin (Li-Cor).

The next test deals with Aiolos. Kind of test: Western blot of Aiolos in GCB and ABC cell lines, 24 or 72 hours. As to conditions: ABC and GCB DLBCL cell lines. As to the method:
Aiolos or β-actin (control) protein levels were analyzed by Western blotting, essentially as described in Section 6.8.

Where [3] appears, read: 3 days, tritiated thymidine incorporation.

On to `Cc1nc2cccc(N)c2c(=O)n1C1CCC(=O)NC1=O` (centres unmarked) [Compound A, 3-(5-amino-2-methyl-4-oxo-4H-quinazolin-3-yl)-piperidine-2,6-dione], for which the “sensitivity of ABC DLBCL cell lines” value in test [1] is “sensitive”. For the same compound, the “activity in some GCB DLBCL compared to lenalidomide (proliferation)” value in test [1] (setting [3]) is “Differential activity”. In addition, the “potency in ABC DLBCL (proliferation)” value in test [1] (setting [3]) is “more potent than lenalidomide”. The “levels of ZFP91 and Aiolos” value with ZFP91, Aiolos (100 mM thalidomide, 10 mM lenalidomide, 1 mM pomalidomide, 1 μM or 10 μM Compound A, 100 nM Compound B, FIG. 17A) is “reduced”; in the test with ZFP91, Aiolos (1 or 10 μM lenalidomide, 0.1, 1 or 10 μM Compound A, FIG. 17B) it was “reduced”. Further, the “anti-proliferative effects on co-treatment with lenalidomide” value in test [2] was “blocks anti-proliferative effects of Compound A”. For the same compound, the “levels of Aiolos, Ikaros, and ZFP91” value in the test on Aiolos, Ikaros, ZFP91 was “reduced”. The Aiolos protein levels entry in the test with Aiolos was “decrease in a dose-dependent manner”.

These data come from patent US10996215B2, “Methods for determining drug efficacy for the treatment of diffuse large B-cell lymphoma, multiple myeloma, and myeloid cancers” (CELGENE CORPORATION, priority 2013, dated 2021).
